Literature values as cited in patent publication US20140234410A1, “COMBINATION PRODUCTS” (SIGMOID PHARMA LTD., priority 2004, published 2014).

Key:
[1] = in vivo
thrombocythemia = conditions: co-administrated with a small dose of aspirin; people with thrombocythemia
[2] = adults
[3] = in vivo; remark: listed apart in the source
tumour growth = conditions: simultaneous administration with R-verapamil

For `COc1ccc2c(c1)[C@]13CCCC[C@@H]1[C@H](C2)N(C)CC3` [Dextromethorphan], the “adverse effects, share of people” value [1] is listed as “less than 1%”.
In the case of `NC(=O)NO` [Hydroxyurea], the solubility in water is given as “freely soluble” and the “preventing serious bleeding and other complications versus anagrelide hydrochloride” value (thrombocythemia) is given as “more effective”.
For `COCCOC(=O)C1=C(C)NC(C)=C(C(=O)OC(C)C)C1c1cccc([N+](=O)[O-])c1` (stereo not shown) [Nimodipine], the solubility in water is given as “practically insoluble”.
For `Cn1c(=O)c2[nH]cnc2n(C)c1=O` [Theophylline], the biological half life [2] is listed as < 6 hours and the “concentrations with anti-inflammatory and immunostimulatory effect” value [3] is listed as 5 to 10 mg/L.
For `CN/C(=N/CCSCc1nc[nH]c1C)NC#N` [cimetidine], the bioavailability of nimodipine (cytochrome P450; effect of the co-administered drug) is given as “approximate doubling”.
In the case of `CN(CCOc1ccc(CC2SC(=O)NC2=O)cc1)c1ccccn1` (stereo not shown) [rosiglitazone, Rosiglitazone], the “solubility as a function of pH” value (physiological range) is given as “decreases with increasing pH”.
In the case of `CC/C(=C(\c1ccccc1)c1ccc(OCCN(C)C)cc1)c1ccccc1` [tamoxifen, Tamoxifen], the tumour growth (tumour growth) is given as “significantly decreases”.
In the case of `CCCC(CCC)C(=O)O` [valproic acid], the “plasma concentrations of nimodipine” value (cytochrome P450; two drugs administered in combination) is given as “increased”.
